The values below come from patent US5583147A, “Amides for the treatment of atherosclerosis” (The Dupont Merck Pharmaceutical Company, priority 1994, dated 1996).

For orientation: pIC50 means the IC50 on a negative log10 scale, so that one unit is a factor of ten.

Structures are written as SMILES. pIC50: −log10 of the molar value.

This assay has as its target T1, Acyl-CoA: Cholesterol Acyltransferase (ACAT) (Rattus norvegicus, UniProt Q7TQM4).
T1 construct: centrifuged at 105,000×g for 1 hour to pellet the microsomes; from tissue; host or cells: liver microsomes of male Sprague Dawley rats
T1 sequence (Q7TQM4 1-524): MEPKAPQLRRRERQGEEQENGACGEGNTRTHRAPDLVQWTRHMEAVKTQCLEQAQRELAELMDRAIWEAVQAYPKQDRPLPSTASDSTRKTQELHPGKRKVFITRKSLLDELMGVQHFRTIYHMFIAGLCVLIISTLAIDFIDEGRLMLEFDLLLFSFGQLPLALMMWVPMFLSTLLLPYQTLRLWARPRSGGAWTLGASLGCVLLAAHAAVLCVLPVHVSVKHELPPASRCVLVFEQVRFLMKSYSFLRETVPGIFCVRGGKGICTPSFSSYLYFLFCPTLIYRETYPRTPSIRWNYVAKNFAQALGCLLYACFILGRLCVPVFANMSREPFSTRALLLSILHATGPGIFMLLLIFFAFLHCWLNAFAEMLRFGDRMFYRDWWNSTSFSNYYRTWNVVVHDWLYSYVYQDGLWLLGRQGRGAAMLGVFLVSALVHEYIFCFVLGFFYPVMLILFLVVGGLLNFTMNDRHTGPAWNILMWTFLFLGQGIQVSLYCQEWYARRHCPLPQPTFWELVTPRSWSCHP
Briefly: Inhibition of Acyl-CoA: Cholesterol Acyltransferase (ACAT) in Hepatic Microsomes (In Vitro Assay). The conditions noted are these: 75 μM 14C-oleoyl-CoA, pH 7.4, 37° C., 10 min, read-out: ACAT Inhibitory Activity (In Vitro) (IC50). Format: biochemical, rat (male Sprague Dawley). The procedure:
A. Assay of the Inhibition of Acyl-CoA: Cholesterol Acyltransferase (ACAT) in Hepatic Microsomes (In Vitro Assay)
The ability of the compounds to inhibit ACAT, the enzyme responsible for the intracellular synthesis of cholesteryl esters, was tested as follows. Male Sprague Dawley rats weighing 150-300 g, were fed rat chow ad libitum. The animals were fasted for twenty-four hours prior to being euthanized by CO2. The livers were perfused in situ with 50 ml of cold 0.25 sucrose, excised, and homogenized in three volumes of 0.1M phosphate buffer, pH 7.4, that contained 0.5 mM EDTA (ethylenediamine-tetraacetic acid), 1.0 mM glutathione, 0.25M sucrose and […] leupeptin. Microsomes were obtained by differential centrifugation; the supernatant from an initial spin at 15,000×g for 15 minutes was centrifuged at 105,000×g for 1 hour to pellet the microsomes. The microsomes were suspended in homogenization buffer, reisolated by centrifugation, and stored at -70° C. Microsomes were used within one month of preparation.
The control assay in a final volume of 200 μl consisted of 200 μg of microsomal protein, 75 μM ^14 C-oleoyl-CoA (10,000 dpm/nmol) in 0.1M phosphate, pH 7.4, that contained 1 mM glutathione. Compounds were added in 5 μl of DMSO (dimethyl sulfoxide) and additional controls were run with DMSO only. All components, except the oleoyl-CoA, were preincubated for 15 min. at 37° C. prior to the initiation of the reaction by the addition of oleoyl-CoA. The assay was terminated after 10 min by the addition of 4 ml of chloroform:methanol (2:1, v/v). 20,000 dpm of ^3 H-cholesteryl oleate and 10 μg of unlabeled cholesteryl oleate and oleic acid were added as an internal standard and carriers, respectively. After allowing 10 min. for lipid extraction, the samples were centrifuged at 1,000×g for 10 min to separate the solvent layers. The chloroform layer containing the neutral lipids was spotted onto a Baker SI250-Pa silica gel TLC plate and the plate developed using a hexane:diethyl ether:acetic acid (170:30:1) v/v/v) mobile phase. The lipids were visualized by their interaction with iodine vapor and the cholesteryl ester spot was scraped into a scintillation vial and counted. The specific activity of ACAT in the control incubation averaged 260 pmol/min/mg microsomal protein. The data obtained are expressed as the concentration at which ACAT activity is inhibited by 50% (IC50).
In the case of `CCCCCCSC(C(=O)Nc1c(SC)cc(C)nc1SC)c1ccc(OCCCC)cc1` (stereo not drawn) [Example 260, N-[2,4-bis(methylthio)-6-methyl-3-pyridyl]-α-hexylthio-4-butoxy-phenylacetamide], the pIC50 is > 6.00.

On to `COc1ccc(CSC(C(=O)Nc2c(SC)cc(C)nc2SC)c2ccc(-c3ccccc3)cc2)cc1` (stereo not drawn) [Example 465, N-[2,4-bis(methylthio)-6-methyl-3-pyridyl]-α-(4-methoxy-benzylthio)-4-biphenylacetamide], for which the pIC50 was > 6.00.

For the molecule `CCCCCCSC(C(=O)Nc1c(SC)cc(C)nc1SC)c1ccc(Oc2ccccc2)cc1` (stereo not drawn) [Example 288, N-[2,4-bis(methylthio)-6-methyl-3-pyridyl]-α-hexylthio-4-phenoxy-phenylacetamide], the pIC50 is > 6.00.

`COc1ccc(CSC(C(=O)Nc2c(SC)cc(C)nc2SC)c2ccc(C(F)(F)F)cc2)cc1` (stereo not drawn) [Example 381, N-[2,4-bis(methylthio)-6-methyl-3-pyridyl]-α-(4-methoxy-benzylthio)-4-trifluoromethyl-phenylacetamide]: the pIC50 is > 6.00.

Turning to `CSc1cc(C)nc(SC)c1NC(=O)C(SCc1ccccc1)c1ccc(C(F)(F)F)cc1` (stereo not drawn) [Example 379, N-[2,4-bis(methylthio)-6-methyl-3-pyridyl]-α-benzylthio-4-trifluoromethyl-phenylacetamide], the negative logarithm of the IC50 (pIC50) was > 6.00.

With `CCCCOc1ccc(CSC(C(=O)Nc2c(SC)cc(C)nc2SC)c2ccc(C(C)C)cc2)cc1` (stereo not drawn) [Example 411, N-[2,4-bis(methylthio)-6-methyl-3-pyridyl]-α-(4-butoxy-benzylthio)-4-isopropylphenylacetamide], the negative-log IC50 (pIC50) was > 6.00.

With `COc1ccc(CSC(C(=O)Nc2c(SC)cc(C)nc2SC)c2ccc(Cl)c(Cl)c2)cc1` (stereo not drawn) [Example 182, N-[2,4-bis(methylthio)-6-methyl-3-pyridyl]-α-(4-methoxy-benzylthio)-3,4-dichloro-phenylacetamide], the negative logarithm of the IC50 (pIC50) is > 6.00.

Regarding `COc1ccc(C(SCc2ccc(F)cc2)C(=O)Nc2c(SC)cc(C)nc2SC)cc1` (stereo not drawn) [Example 124, N-[2,4-bis(methylthio)-6-methyl-3-pyridyl]-α-(4-fluoro-benzylthio)-4-methoxy-phenylacetamide], the negative logarithm of the IC50 (pIC50) is > 6.00.

Take `CC(C)c1cccc(C(C)C)c1NC(=O)C(Sc1ccccc1)c1ccccc1` (single isomer, unassigned) [Example 64]: the negative logarithm of the IC50 (pIC50) is 5.00 to 6.00.

For `CCCCCCSC(C(=O)Nc1c(SC)cc(C)nc1SC)c1cccc(Oc2ccccc2)c1` (stereo not drawn) [Example 316, N-[2,4-bis(methylthio)-6-methyl-3-pyridyl]-α-hexylthio-3-phenoxy-phenylacetamide], the pIC50 was > 6.00.

With `COc1ccc(C(OC)C(=O)Nc2c(SC)cc(C)nc2SC)cc1` (stereo not drawn) [Example 146, N-[2,4-bis(methylthio)-6-methyl-3-pyridyl]-α-O-methyl-4-methoxymandeloamide], the pIC50 was 5.00 to 6.00.

Regarding `CCCCCCSC(C(=O)Nc1c(SC)cc(C)nc1SC)c1ccc(Cl)cc1` (stereo not drawn) [Example 85, N-[2,4-bis(methylthio)-6-methyl-3-pyridyl]-α-hexylthio-4-chloro-phenylacetamide], the negative-log IC50 (pIC50) is > 6.00.

Turning to `CCSC(C(=O)Nc1c(SC)cc(C)nc1SC)c1ccccc1` (single isomer, unassigned) [Example 50, N-[2,4-bis(methylthio)-6-methyl-3-pyridyl]-L-(+)-α-ethylthio-phenylacetamide], the pIC50 is > 6.00.

Turning to `COc1ccc(C(SCc2ccc(Cl)cc2)C(=O)Nc2c(SC)cc(C)nc2SC)cc1` (stereo not drawn) [Example 123, N-[2,4-bis(methylthio)-6-methyl-3-pyridyl]-α-(4-chloro-benzylthio)-4-methoxy-phenylacetamide], the negative-log IC50 (pIC50) was > 6.00.

Consider `CSc1cc(C)nc(SC)c1NC(=O)C(SCc1ccc(Cl)cc1)c1ccc(Oc2ccccc2)cc1` (stereo not drawn) [Example 295, N-[2,4-bis(methylthio)-6-methyl-3-pyridyl]-α-(4-chloro-benzylthio)-4-phenoxy-phenylacetamide], for which the pIC50 is > 6.00.

Turning to `CCCCCCSC(C(=O)Nc1c(SC)cc(C)nc1SC)c1ccccc1` (single isomer, unassigned) [Example 41, N-[2,4-bis(methylthio)-6-methyl-3-pyridyl]-L-(+)-α-hexylthio-phenylacetamide], the pIC50 is > 6.00.

On to `CSc1cc(C)nc(SC)c1NC(=O)C(Sc1ccccc1)c1ccc(Cl)cc1` (stereo not drawn) [Example 102, N-[2,4-bis(methylthio)-6-methyl-3-pyridyl]-α-phenylthio-4-chloro-phenylacetamide], for which the negative logarithm of the IC50 (pIC50) is > 6.00.

On to `CSc1cc(C)nc(SC)c1NC(=O)C(SCc1ccccc1)c1ccccc1` (single isomer, unassigned) [Example 47, N-[2,4-bis(methylthio)-6-methyl-3-pyridyl]-L-(+)-α-benzylthio-phenylacetamide], for which the negative logarithm of the IC50 (pIC50) was > 6.00.

Take `CSc1cc(C)nc(SC)c1NC(=O)C(SCc1ccccc1)c1ccc(C(C)(C)C)cc1` (stereo not drawn) [Example 435, N-[2,4-bis(methylthio)-6-methyl-3-pyridyl]-α-benzylthio-4-tert-butylphenylacetamide]: the pIC50 was > 6.00.

`CCCCCCSC(C(=O)Nc1c(SC)cc(C)nc1SC)c1ccc(C(F)(F)F)cc1` (stereo not drawn) [Example 375, N-[2,4-bis(methylthio)-6-methyl-3-pyridyl]-α-hexylthio-4-trifluoromethyl-phenylacetamide]: the pIC50 was > 6.00.

For `CCCCCCSC(C(=O)Nc1c(SC)cc(C)nc1SC)c1ccc(C(C)(C)C)cc1` (stereo not drawn) [Example 431, N-[2,4-bis(methylthio)-6-methyl-3-pyridyl]-α-hexylthio-4-tert-butylphenylacetamide], the negative-log IC50 (pIC50) was > 6.00.

With `COc1ccc(CSC(C(=O)Nc2c(SC)cc(C)nc2SC)c2ccc(F)cc2)cc1` (stereo not drawn) [Example 154, N-[2,4-bis(methylthio)-6-methyl-3-pyridyl]-α-(4-methoxy-benzylthio)-4-fluoro-phenylacetamide], the pIC50 is > 6.00.

Regarding `COc1ccc(C(OC)C(=O)Nc2c(C(C)C)cccc2C(C)C)cc1` (stereo not drawn) [Example 147, N-(2,6-diisopropyl-phenyl)-α-O-methyl-4-methoxymandeloamide], the negative-log IC50 (pIC50) is 5.00 to 6.00.

For `CCCCOc1ccc(CSC(C(=O)Nc2c(SC)cc(C)nc2SC)c2ccc(-c3ccccc3)cc2)cc1` (stereo not drawn) [Example 467, N-[2,4-bis(methylthio)-6-methyl-3-pyridyl]-α-(4-butoxy-benzylthio)-4-biphenylacetamide], the pIC50 is > 6.00.

Regarding `COc1ccc(C(SCc2ccccc2)C(=O)Nc2c(SC)cc(C)nc2SC)cc1OC` (stereo not drawn) [Example 236, N-[2,4-bis(methylthio)-6-methyl-3-pyridyl]-α-benzylthio-3,4-dimethoxy-phenylacetamide], the pIC50 is > 6.00.

As for `CSc1cc(C)nc(SC)c1NC(=O)C(SCc1ccc(C(C)(C)C)cc1)c1ccc(C(C)(C)C)cc1` (stereo not drawn) [Example 439, N-[2,4-bis(methylthio)-6-methyl-3-pyridyl]-α-(4-tert-butyl-benzylthio)-4-tert-butylphenylacetamide], the pIC50 is > 6.00.

Consider `COc1ccc(SC(C(=O)Nc2c(SC)cc(C)nc2SC)c2ccc(Cl)cc2)cc1` (stereo not drawn) [Example 103, N-[2,4-bis(methylthio)-6-methyl-3-pyridyl]-α-(4-methoxy-phenylthio)-4-chloro-phenylacetamide], for which the pIC50 is > 6.00.
